Where two headings read alike, the source gives them in different places.
What was measured:
[1] = tested on: recombinantly expressed PKR mutant proteins; assay: Activation of recombinantly expressed PKR mutant proteins; format: biochemical
[2] = Drug exposure in mice; format: in vivo, C57/BL6 mice; conditions: oral gavage, 1-150 mpk, single dose and multiple dose (13 doses, BID)
Text: Dose levels tested were 1 mpk, 10 mpk, 50 mpk, and 150 mpk. Following the last dose, mice were bled to evaluate drug exposure and pharmacodynamic markers including 2,3-DPG and ATP levels, and PKR activity. […]. […]

[3] = molecular target: PKR (Mus musculus, UniProt P53657)
Sequence of PKR (P53657 whole entry): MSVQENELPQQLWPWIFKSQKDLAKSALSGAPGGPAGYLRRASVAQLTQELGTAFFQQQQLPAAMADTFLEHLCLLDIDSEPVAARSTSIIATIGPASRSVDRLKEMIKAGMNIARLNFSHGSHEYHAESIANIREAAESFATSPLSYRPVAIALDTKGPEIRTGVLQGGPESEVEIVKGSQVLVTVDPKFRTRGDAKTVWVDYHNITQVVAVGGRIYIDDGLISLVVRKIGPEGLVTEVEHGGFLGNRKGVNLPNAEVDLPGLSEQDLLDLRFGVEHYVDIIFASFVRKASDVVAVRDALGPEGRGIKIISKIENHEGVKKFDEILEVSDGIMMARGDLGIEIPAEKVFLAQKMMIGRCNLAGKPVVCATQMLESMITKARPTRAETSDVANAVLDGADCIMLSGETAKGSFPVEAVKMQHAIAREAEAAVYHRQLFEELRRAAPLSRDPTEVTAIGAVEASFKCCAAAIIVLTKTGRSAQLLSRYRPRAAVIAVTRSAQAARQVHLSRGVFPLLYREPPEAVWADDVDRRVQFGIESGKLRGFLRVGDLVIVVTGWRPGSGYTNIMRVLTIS
Text: Dose levels tested were 1 mpk, 10 mpk, 50 mpk, and 150 mpk. Following the last dose, mice were bled to evaluate drug exposure and pharmacodynamic markers including 2,3-DPG and ATP levels, and PKR activity.

[4] = SAD study pharmacokinetics in healthy subjects; format: in vivo, human; conditions: for half-life: oral
Procedure: . Key exclusion criteria included glucose 6-phosphate dehydrogenase deficiency, blood donation, blood loss of greater than 500 mL, or transfusion of blood or plasma within three months of screening.

[5] = MAD study safety and tolerability; conditions: doses between 360 and 700 not explored
Text: (§2) Adverse events (AEs), laboratory parameters, ECGs, and vital signs were monitored.

[6] = MAD study pharmacokinetics in healthy subjects
[7] = molecular target: cytochrome P450 3A4 (CYP3A4) (Homo sapiens, UniProt P08684); assay: Pre-clinical CYP3A4 induction / metabolism; format: in vitro ADME
Sequence of cytochrome P450 3A4 (CYP3A4) (P08684 whole entry): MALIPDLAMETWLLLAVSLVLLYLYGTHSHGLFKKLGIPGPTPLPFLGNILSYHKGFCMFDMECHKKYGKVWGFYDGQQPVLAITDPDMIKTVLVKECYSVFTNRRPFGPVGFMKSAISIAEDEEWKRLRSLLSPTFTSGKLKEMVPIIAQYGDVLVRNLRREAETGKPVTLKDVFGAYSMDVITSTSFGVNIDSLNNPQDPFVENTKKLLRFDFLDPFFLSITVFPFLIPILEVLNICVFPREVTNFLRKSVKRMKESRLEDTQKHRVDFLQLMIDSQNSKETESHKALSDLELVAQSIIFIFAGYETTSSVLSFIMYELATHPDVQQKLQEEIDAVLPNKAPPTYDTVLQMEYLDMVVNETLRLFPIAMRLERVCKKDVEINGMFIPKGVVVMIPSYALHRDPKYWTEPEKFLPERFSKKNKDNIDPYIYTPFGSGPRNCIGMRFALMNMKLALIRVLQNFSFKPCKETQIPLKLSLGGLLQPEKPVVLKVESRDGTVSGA

[8] = tested on: PK-R; assay: MAD study pharmacodynamics (blood 2,3-DPG and ATP)
[9] = tested on: PKD red cells; assay: Ex-vivo treatment of PKD red cells; format: cell-based, human; conditions: PKD red cells treated ex-vivo
[10] = in vivo
Text: as §2

[11] = tested on: PKR reaction; assay: PKR flux in whole blood from treated mice ([U-13C6]-glucose); format: in vivo, C57BL/6 mice; conditions: 100 mpk BID, 13 doses, oral gavage; kinetic flux model
Procedure: Whole blood was incubated with [U-^13C6]-glucose at 37° C. and the metabolite pool sizes and rate of ^13C label incorporation into glycolytic intermediates were assessed. The data were subsequently analyzed using a mathematical kinetic flux model to quantify the overall change in carbon flow through the PKR reaction.

[12] = tested on: PK-R
Procedure: (§1) Key exclusion criteria included glucose 6-phosphate dehydrogenase deficiency, blood donation, blood loss of greater than 500 mL, or transfusion of blood or plasma within three months of screening.

[13] = SAD study safety and tolerability; format: in vivo, human
Procedure: as §1

[14] = single oral dose, 1, 10, 50, 150 mpk

O=C(c1ccc(NS(=O)(=O)c2cccc3cccnc23)cc1)N1CCN(CC2CC2)CC1 [Compound 1, N-(4-(4-(cyclopropylmethyl)piperazine-1-carbonyl)phenyl)quinoline-8-sulfonamide]
activity of mutated PK-R enzymes ([1]; pre-clinical studies): increases the activity
protein stability of PKR mutant proteins ([1]; recombinantly expressed PKR mutants associated with PKD): enhances the protein stability
drug exposure [2]: dose-proportional increase in exposure
ATP levels in whole blood ([3]; multiple doses (13 doses, BID), 1, 10, 50, 150 mpk): robustly increased in a dose-dependent manner
2,3-DPG levels in whole blood [3, 14]: reduction in 2,3-DPG levels
ATP levels in whole blood [3, 14]: no significant changes
half-life ([4]; both sexes, human, plasma, concentrations measured for 72 hours, read-out: mean apparent terminal half-life (t1/2)): 17.5 to 20.5 h
half-life ([4]; both sexes, human, plasma, concentrations measured for 120 hours, read-out: mean apparent terminal half-life (t1/2)): 50 to 80 h
half-life ([4]; both sexes, human, plasma, first 12 hours following dosing, read-out: apparent half-life of rapid distribution or elimination phase): 2 to 4 h
Tmax ([4]; both sexes, human, plasma, single oral dose, SAD cohorts, read-out: median Tmax): 0.75 to 4 h
effect of food on exposure ([4]; fed vs fasted, preliminary results): minimal effect
exposure (mean plasma Cmax, AUC0-12 hr and AUC0-72 hr) ([4]; single doses, SAD cohorts 1-6): increased in a dose-proportional manner
highest well-tolerated dose [5]: 360 mg q12h
plasma exposure ([6]; 15-700 mg q12h, 120 mg q24h): dose dependent
pharmacokinetic parameter values Day 14 compared with Day 1 ([6]; MAD cohorts 1 and 2 (120 mg BID, 360 mg BID)): lower on Day 14
role of CYP3A4 in metabolism of the compound [7]: major route of the oxidative metabolism
CYP3A4 induction ([7]; pre-clinical data): moderate inducer
effect on ATP levels after first dose ([8]; 12 hours following the first dose): minimal
ATP levels in the blood ([8]; Days 8-14, MAD cohorts 1 and 2): substantial increases
2,3-DPG levels ([8]; after final dose, MAD cohorts 1 and 2): decreases in 2,3-DPG levels
time ATP levels remained elevated ([8]; after the last dose, MAD cohorts 1 and 2): ≥ 72 h
dose at which decrease in 2,3-DPG and increase in ATP plateau ([8]; in vivo): 360 mg q12h
time for 2,3-DPG decrease to reach full extent ([8]; of dosing): ≤ 7 days
time for ATP increase to reach full extent ([8]; of dosing): ≤ 10 days
2,3-DPG levels [9]: reduced 2,3-DPG levels
ATP levels [9]: increased ATP levels
PKR enzyme activity levels [9]: increased PKR enzyme activity levels
dose at which gastrointestinal AEs occurred ([10]; both, human, 14 days): 700 mg q12h
severity of treatment-related AEs ([10]; both, human, 14 days): mild or moderate (only 1 grade 3 event)
subjects with related headache ([10]; both, human, 14 days): 14%
subjects with related nausea ([10]; both, human, 14 days): 14%
subjects with treatment related ≥1 AEs ([10]; both, human, 14 days): 31%
subjects with ≥1 AE ([10]; both, human, 14 days): 44%
number of discontinuations [10]: four
glycolytic flux through the PKR reaction [11]: significantly increased
blood ATP levels ([12]; after a single dose, SAD study): minimal increases
time for 2,3-DPG to return to placebo levels ([12]; after single dose): 72 h
serious AEs, discontinuations due to AEs, dose-limiting toxicities ([13]; SAD and 2 completed MAD cohorts): no serious AEs, discontinuations due to AEs, or dose-limiting toxicities
maximum tolerated dose ([13]; single oral dose 30-2500 mg): not reached
